Patent US6906205B2, “Spiro and dispiro 1,2,4-trioxolane antimalarials” (Medicines for Malaria Venture MMV, priority 2002, dated 2005)
In brackets after ≈: the same amount, converted by molar mass. Read-outs that look alike come from different tables or passages of the source.

Experiments:
[1] = test system: ANKA strain of P. berghei; assay: single dose STI in vivo screen in infected mice; set-up: species or system Plasmodium berghei; conditions: for Activity (%) po / Activity (%) sc / Activity (%) SSVpo / Activity (%) 3 mg/kg SSV po / Activity (%) 10 mg/kg SSV po: percent reduction in parasitemia day 3 post-infection; for Activity (%) po / Survival (days) po: single 10 mg/kg po in 3% ethanol and 7% Tween 80; for Activity (%) po / Activity (%) sc / Activity (%) SSVpo: mice; for Activity (%) sc / Survival (days) sc: single 10 mg/kg sc in 3% ethanol and 7% Tween 80; for Activity (%) SSVpo: single po dose in standard suspending vehicle (SSV); for Survival (days) po / Survival (days) sc / Survival (days) SSVpo: untreated control 5.6 ± 0.3; for Survival (days) SSVpo: single po dose in SSV; for Activity (%) 10 mg/kg SSV po / Survival (days) 10 mg/kg SSV po: single 10 mg/kg po in SSV
Summary of the method: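 Groups of 3-5 Moro SPF or NMRI mice infected with the ANKA strain of P. berghei received a single dose of trioxolane on day one post-infection. The compound was given in 3% ethanol and 7% Tween 80 or in SSV (0.5% w/v CMC, 0.5% v/v benzyl alcohol, 0.4% v/v Tween 80, 0.9% w/v sodium chloride in water). Antimalarial activity was scored as percent reduction in parasitemia on day three and as survival time versus untreated controls. Survival to day 30 counted as cure.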

[2] = test system: P. falciparum K1 strain (Thailand resistant to chloroquine); assay: semiautomated microdilution assay, [3H]-hypoxanthine incorporation, K1 strain; type: cell-based, Plasmodium falciparum; conditions: for IC50: Plasmodium falciparum, read-out: IC50 (ng/ml) K1
Summary of the method: (§1)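 Intraerythrocytic stages from unsynchronised stock cultures are exposed to test compounds in a semiautomated microdilution format, and fifty percent inhibitory concentrations are then fitted by logit regression.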

[3] = test system: P. falciparum NF54 strain (sensitive to standard antimalarials); assay: semiautomated microdilution assay, [3H]-hypoxanthine incorporation, NF54 strain; type: cell-based, Plasmodium falciparum; conditions: for IC50: Plasmodium falciparum, read-out: IC50 (ng/ml) NF54
Summary of the method: as §1

SMILES	Activity (%) po [1]	Activity (%) sc [1]	Activity (%) SSVpo [1]	Survival (days) po [1] [days]	Survival (days) sc [1] [days]	Survival (days) SSVpo [1] [days]	IC50 (ng/ml) K1 ([2]; K1 strain, 72 h incubation)	IC50 (ng/ml) NF54 ([3]; NF54 strain, 72 h incubation)	IC50 ([2]; K1, 72 h) [ng/mL]	IC50 ([3]; NF54, 72 h) [ng/mL]	Activity (%) 3 mg/kg SSV po ([1]; single 3 mg/kg po in SSV) [%]	Activity (%) 10 mg/kg SSV po [1] [%]	Survival (days) 3 mg/kg SSV po ([1]; single 3 mg/kg po in SSV) [days]	Survival (days) 10 mg/kg SSV po [1] [days]	IC50 ([2]; K1 strain, 72 h incubation) [ng/mL]	IC50 ([3]; NF54 strain, 72 h incubation) [ng/mL]
[N-]=[N+]=NCC[C@H]1CC[C@]2(CC1)OOC1(O2)C2CC3CC(C2)CC1C3 (stereo partly drawn) [OZ228]	99.94%	99.94%	28%	10.3	14.0	6.0	2.0 ng/mL (≈ 0.006 µM)	2.1 ng/mL (≈ 0.0063 µM)								
OCCC1CCC2(CC1)OOC1(O2)C2CC3CC(C2)CC1C3 (stereo not drawn) [OZ89]	94%	99.8%	89%	7.3	8.7	6.7			0.3 (≈ 0.000973 µM)	0.75 (≈ 0.00243 µM)						
CC(=O)OC(C)(C)C(=O)N[C@H]1CC[C@]2(CC1)OOC1(O2)C2CC3CC(C2)CC1C3 (stereo partly drawn) [OZ202]	79%	74%	51%	7.0	7.3	7.3	6.0 ng/mL (≈ 0.0147 µM)	7.9 ng/mL (≈ 0.0194 µM)								
C1C2CC3CC1CC(C2)C31OO[C@]2(CC[C@@H](CN(C[C@H]3CC[C@]4(CC3)OOC3(O4)C4CC5CC(C4)CC3C5)C3CC3)CC2)O1 (stereo partly drawn) [OZ254]	27%	2%	11%	6.0	5.7	5.7	> 100 ng/mL	57 ng/mL (≈ 0.0935 µM)								
N=C(N)NN=C1CCC2(CC1)OOC1(O2)C2CC3CC(C2)CC1C3 (stereo not drawn) [OZ172]	68%	100%	82%	8.0	10.3	10.3	3.5 ng/mL (≈ 0.0105 µM)	5.0 ng/mL (≈ 0.015 µM)								
O=C(O)COCC(=O)N1CCC2(CC1)OOC1(O2)C2CC3CC(C2)CC1C3 (stereo not drawn) [OZ112]	6%	36%	0%	5.7	6.3	5.7	>10/>10 ng/ml	>10/>10 ng/ml								
O=C(C[C@H]1CC[C@]2(CC1)OOC1(O2)C2CC3CC(C2)CC1C3)Nc1nccs1 (stereo partly drawn) [OZ217]	67%	98%	8%	7.0	8.0	6.0	2.0/2.0 ng/ml	2.0/2.0 ng/ml								
c1ccc2c(c1)-c1ccccc1C21OOC2(O1)C1CC3CC(C1)CC2C3 (stereo not drawn) [OZ94]	21%	11%	0%	6.0	5.3	5.7	57 ng/mL (≈ 0.165 µM)	28 ng/mL (≈ 0.0808 µM)								
CC1(C)C2CCC1(CS(=O)(=O)N1CCC3(CC1)OOC1(O3)C3CC4CC(C3)CC1C4)C(=O)C2 (stereo not drawn) [OZ91]	20%	85%	0%	5.7	7.3	6.0	1.4 ng/mL (≈ 0.00292 µM)	0.42 ng/mL (≈ 0.000876 µM)								
NC(=O)N[C@H]1CC[C@]2(CC1)OOC1(O2)C2CC3CC(C2)CC1C3 (stereo partly drawn) [OZ221]	80%	97%	87%	6.3	8.0	7.0	>10/>10 ng/ml	>10/>10 ng/ml								
O=C(C[C@H]1CC[C@]2(CC1)OOC1(O2)C2CC3CC(C2)CC1C3)N1CCN(c2ccccc2)CC1 (stereo partly drawn) [OZ244]	6%	18%	0%	5.7	6.3	5.3	4.0 ng/mL (≈ 0.00857 µM)	4.2 ng/mL (≈ 0.009 µM)								
NC(=O)NC[C@H]1CC[C@]2(CC1)OOC1(O2)C2CC3CC(C2)CC1C3 (stereo partly drawn) [OZ265]	99%	99.67%	98%	13.0	11.7	9.7	0.56 ng/mL (≈ 0.00166 µM)	1.6 ng/mL (≈ 0.00476 µM)								
COC(=O)c1ccc(C2(c3ccc(C(=O)OC)c(C(=O)OC)c3)OOC3(O2)C2CC4CC(C2)CC3C4)cc1C(=O)OC (stereo not drawn) [OZ106]	0/0/0%	0/0/0%	0/0/0%	5.3	5.3	5.0	2.2 ng/mL (≈ 0.00379 µM)	1.7 ng/mL (≈ 0.00293 µM)								
O=C(O)CCC[C@H]1CC[C@]2(CC1)OOC1(O2)C2CC3CC(C2)CC1C3 (stereo partly drawn) [OZ261]	61%	92%	47%	7.0	8.0	7.0	39 ng/mL (≈ 0.111 µM)	18 ng/mL (≈ 0.0514 µM)								
COc1ccc(S(=O)(=O)N2CCC3(CC2)OOC2(O3)C3CC4CC(C3)CC2C4)cc1 (stereo not drawn) [OZ59]	51%	99.95%		6.0	10.0		1.4 ng/mL (≈ 0.00321 µM)	1.3 ng/mL (≈ 0.00298 µM)								
CCOC(=O)CCC1CCCCC12OOC1(CCCCC1)O2 (stereo not drawn) [OZ07]	0/NA/0^1%	0/NA/0^1%		6.0	5.7		66 ng/mL (≈ 0.211 µM)	49 ng/mL (≈ 0.157 µM)								
CCOC(=O)C1(C(=O)OCC)COC2(CCC3(CC2)OOC2(O3)C3CC4CC(C3)CC2C4)OC1 (stereo not drawn) [OZ120]	33%	96%	8%	6.0	8.0	5.7	1.2 ng/mL (≈ 0.0025 µM)	0.59 ng/mL (≈ 0.00123 µM)								
NC(=O)[C@@H]1CCCN1C(=O)C[C@H]1CC[C@]2(CC1)OO[C@]1(O2)C2CC3CC(C2)CC1C3 [OZ346]							3.8 ng/mL (≈ 0.00908 µM)	4.7 ng/mL (≈ 0.0112 µM)			51	85	7.6	8.8		
O=S(=O)(c1cccc2cccnc12)N1CCC2(CC1)OOC1(O2)C2CC3CC(C2)CC1C3 (stereo not drawn) [OZ114]	0%	99.64%	0%	5.7	8.7	6.0	3.7 ng/mL (≈ 0.0081 µM)	2.2 ng/mL (≈ 0.00482 µM)								
NOC[C@H]1CC[C@]2(CC1)OO[C@]1(O2)C2CC3CC(C2)CC1C3 [OZ334]							28 ng/mL (≈ 0.0905 µM)	20 ng/mL (≈ 0.0646 µM)			13	47		6.8		
O=C1CCC2(CCO1)OOC1(O2)C2CC3CC(C2)CC1C3 (stereo not drawn) [OZ17]	0%	18%		5.3	6.3										85 (≈ 0.289 µM)	> 100
CCN(CC)C(=O)C1CCC2(CC1)OOC1(O2)C2CC3CC(C2)CC1C3 (stereo not drawn) [OZ73]	27%	36%		6.0	6.7		6.5 ng/mL (≈ 0.0179 µM)	8.2 ng/mL (≈ 0.0226 µM)								
O=C(OCCn1ccnc1)C1CCC2(CC1)OOC1(O2)C2CC3CC(C2)CC1C3 (stereo not drawn) [OZ182]	91%	95%	96%	8.0	7.7	7.3	4.5 ng/mL (≈ 0.0112 µM)	5.5 ng/mL (≈ 0.0137 µM)								
O=C(O)CCC(=O)N1CCC2(CC1)OOC1(O2)C2CC3CC(C2)CC1C3 (stereo not drawn) [OZ58]	39%	52%		6.0	6.3		7.1 ng/mL (≈ 0.0194 µM)	7.2 ng/mL (≈ 0.0197 µM)								
